Patent US7501399B2, “Immunoeffector compounds” (Corixa Corporation, priority 2000, dated 2009)

Legend:
Rabbit pyrogen test = format: in vivo; conditions: i.v. 10 μg/Kg dose
Description: In an effort to obtain an immunostimulant that has low pyrogenicity, synthetic molecules have been prepared which share structural similarities with the MPL® immunostimulant (see U.S. patent application Ser. No. 09/810,915, Filed on Mar. 16, 2001, and the present invention). These novel molecules which are collectively called aminoalkyl glucosaminide phosphates (AGPs), consist of an acylated […] moiety linked to an acylated aminoalkyl group (Johnson et al. (1999) Bioorg. Med. Chem. Lett. 9: 2273-2278; PCT/WO98/50399 and references therein). […] The substitution of different chemical moieties within the aminoalkyl structures was designed into the AGPs in anticipation of optimizing stability and solubility properties. Thus the AGPs can be broadly separated into several families based on the structure of their aminoalkyl groups. […] Here we report on studies of the adjuvant properties of a class of AGPs which induce minimal activity in both the rabbit pyrogen test and the ex vivo cytokine assay.

[1] = test system: HBsAg (Hepatitis B Surface Antigen); test: Adjuvant activity towards HBsAg, serum titers by ELISA (Example 2); format: in vivo, BALB/c mice
Experimental: Vaccines were prepared by mixing the adjuvant-containing TEoA (triethanolamine) formulations with recombinant HBsAg. Titers to HBsAg were determined by ELISA from pooled sera (5 mice/group) collected 21 days post-secondary vaccination (Table 1). The nonimmune controls were not vaccinated.

HBsAg = test: Adjuvant activity towards HBsAg, IgG1 and IgG2a isotype titers by ELISA (Example 4); format: in vivo, BALB/c mice
Experimental: IgG1 and IgG2a isotype titers to HBsAg were determined by ELISA from pooled sera collected 21 days post secondary (Table 3). The nonimmune controls were not vaccinated. […] RC-553 stimulated titers equivalent to the positive controls, MPL® immunostimulant (Table 3).

TNF-α = test: Ex vivo cytokine induction in human whole blood, TNF-α sandwich ELISA; format: cell-based; conditions: 1, 5 and 10 μg/ml in the assay; 4 hr at 37° C.
Experimental: (§1) The effects of RC-553 on the elaboration of TNF-α and IL-1β was measured under ex vivo conditions on human peripheral blood mononuclear cells. MPL® immunostimulant and RC-553 were formulated in aqueous solutions of 0.2% TEoA/WFI.
(§2) Human whole blood was used to evaluate the ability of glycolipids (AGPs) to induce proinflammatory cytokines. Human whole blood is collected into heparinized tubes and 0.45 ml of whole blood is admixed with 0.05 ml phosphate buffered saline (PBS, pH 7.4) containing the glycolipid (i.e., the test compounds). The tubes are incubated for 4 hr at 37° C. on a shaker apparatus. The samples are then diluted with 1.5 ml sterile PBS and centrifuged. The supernatants are removed and analyzed for […] TNF-α and IL-1β by sandwich ELISA using R&D Systems' Quantikine immunoassay kits for human TNF-α and IL-1β.

IL-1β = test: Ex vivo cytokine induction in human whole blood, IL-1β sandwich ELISA; format: cell-based
Experimental: as §1, §2

iNOS = iNOS induction in IFN-γ primed J774 murine macrophages, Greiss reagent nitrite release; format: cell-based; conditions: J774 cells primed with IFN-γ
Experimental: This example illustrates the effects of various glycolipids on iNOS induction in J774 murine macrophages. The murine macrophage cell line J774 can be primed by IFN-γ in vitro and is very responsive to subsequent LPS stimulation of iNOS upregulation as measured by a standard Greiss reagent ELISA assay procedure. The assay utilizes J774 cells seeded at 1×10^6/mL with 30 mL/flask and with IFN-γ added at 100 units/mL for 16-24 hrs. Cells are then harvested and washed and resuspended at 2×10^5/well in a 96-well plate and allowed to adhere. Glycolipid compounds are serially diluted into the wells for a test group and the resulting cultures are incubated for another 36-40 hrs before culture supernatants are collected from Greiss reagent analysis of nitrite release (Green et al. (1982) Anal. Biochem. 126: 131-138). Nitrite content closely parallels iNOS function.
Potency was determined as the concentration (ng/mL) of glycolipid in culture capable of inducing one-half maximal induction of nitrite (ED50). The lower the ED50 number, the greater the potency for iNOS induction. The ED50 was cacluated according to methods set out in Johnson et al., (1999) J Med Chem. 42: 4640-4649.

[2] = anti-HBsAg, 2 μg HBsAg + 20 μg adjuvant s.c. day 0 and 21, pooled sera 21 days post-secondary
[3] = anti-HBsAg, 2.0 μg HBsAg + 25 μg adjuvant s.c. day 0 and 21, pooled sera 21 days post secondary

For “N—[(R)-3-Tetradecanoyloxytetradecanoyl]-(S)-2-pyrrolidinomethyl 2-Deoxy-4-O-phosphono-2-[(R)-3-tetradecanoyloxytetradecanoylamino]-3-O—[(R)-3-tetradecanoyloxytetradecanoyl]-β-D-glucopyranoside Triethylammonium Salt [RC-553]”, the “Pyrogenicity (total rise in ° C. of 3 rabbits)” value (“Pyrogenicity” for short) (Rabbit pyrogen test; Table 2) was 0.3 °C, the “Pyrogenicity” value (Rabbit pyrogen test; Table 3) was 0.3 °C and the “Pyrogenicity” value (Rabbit pyrogen test; Table 4) was 0.3 °C. For the same substance, the “Pyrogenicity” value (Rabbit pyrogen test; solubilized in 10% EtOH/WFI, diluted with 5% dextrose in water, Table 1) was 0.3 °C, the “anti-HBsAg responses (serum titers) versus antigen alone” value ([1]; Example 2) was “significantly higher than control sera receiving antigen alone” and the “Serum Titers IgG” value [1, 2] was 409,600. The “Serum Titers IgG1” value [1, 2] was 204,800, the “Serum Titers IgG2a” value [1, 2] was 409,600 and the “Serum Titers IgG2b” value [1, 2] was 51,200. The “HBsAg titers versus control group which received antigen in PBS” value (HBsAg; Example 4) was “increased titers compared to the control group”, the “Serum Titers IgG1” value (HBsAg; [3]) was 32,000 and the “Serum Titers IgG2a” value (HBsAg; [3]) was 2,048,000. For the same substance, the “Levels of TNF-α produced” value (TNF-α) was “did not produce levels of TNF-α that could be detected”, the “Levels of IL-1β produced” value (IL-1β; 1, 5, and 10 μg/ml, 4 hr at 37° C.) was “did not produce detectable levels of IL-1β” and the “Relative induction of cytokines (IL-1β), MPL® immunostimulant assigned a value of 1” value (IL-1β; relative to MPL® immunostimulant = 1) was at most 0.05. The “Maximal iNOS activity / iNOS induction” value (iNOS) was “essentially inactive”.
